Reference: US9586949B2, “Aza-heteroaryl compounds as PI3K-gamma inhibitors” (Incyte Corporation, priority 2015, dated 2017)

Tests used:
[1] = biological target: PI3Kγ (p110γ) Recombinant Human Protein (Homo sapiens (Human), UniProt P48736); assay: PI3K-γ Scintillation Proximity Assay; assay type: biochemical; conditions: 20 μM PIP2, 2 μM ATP, 13 nM PI3Kγ, 120 min; read-out: PI3K-gamma SPA IC50
Method: [γ-^33P]ATP (10 mCi/mL) and Wheat Germ Agglutinin (WGA) YSi SPA Scintillation Beads was purchased from Perkin-Elmer (Waltham, Mass.). […] PI3Kγ (p110γ) Recombinant Human Protein was purchased from Life technology (Grand Island, N.Y.). ATP, MgCl2, DTT, EDTA, MOPS and CHAPS were purchased from Sigma-Aldrich (St. Louis, Mo.).
The kinase reaction was conducted in polystyrene 384-well Greiner Bio-one white plate from Thermo Fisher Scientific in a final volume of 25 μL. Inhibitors were first diluted serially in DMSO and added to the plate wells before the addition of other reaction components. The final concentration of DMSO in the assay was 2%. The PI3Kγ assay was carried out at room temperature in 20 mM MOPS, pH 6.7, 10 mM MgCl2, 5 mM DTT and CHAPS 0.03%. Reactions were initiated by the addition of ATP, the final reaction mixture consisted of 20 μM PIP2, 2 μM ATP, 0.5 μCi [γ-^33P] […] The final concentration of SPA beads is 1.0 mg/mL. After the plate sealing, plates were shaken overnight at room temperature and centrifuged at 1500 rpm for 10 min, the radioactivity of the product was determined by scintillation counting on Topcount (Perkin-Elmer). IC50 determination was performed by fitting the curve of percent of the solvent control activity versus the log of the inhibitor concentration using the GraphPad Prism 6.0 software.

[2] = biological target: PI3Kδ (p110δ/p85α) Recombinant Human Protein (Homo sapiens (Human), UniProt O00329); assay: PI3Kδ Scintillation Proximity Assay; assay type: biochemical; conditions: 20 μM PIP2, 2 μM ATP, 3.4 nM PI3Kδ, 120 min; read-out: PI3K-delta SPA IC50
Text: [γ-^33P]ATP (10 mCi/mL) and Wheat Germ Agglutinin (WGA) YSi SPA Scintillation Beads was purchased from Perkin-Elmer (Waltham, Mass.). Lipid kinase substrate, D-myo-Phosphatidylinositol 4,5-bisphosphate (PtdIns(4,5)P2)D (+)-sn-1,2-di-O-octanoylglyceryl, 3-O-phospho linked (PIP2), CAS 204858-53-7, was purchased from Echelon Biosciences (Salt Lake City, Utah). PI3Kδ (p110δ/p85α) Recombinant Human Protein was purchased from Eurofins (St Charles, Mo.). ATP, MgCl2, DTT, EDTA, MOPS and CHAPS were purchased from Sigma-Aldrich (St. Louis, Mo.).
The kinase reaction was conducted in polystyrene 384-well Greiner Bio-one white plate from Thermo Fisher Scientific in a final volume of 25 μL. Inhibitors were first diluted serially in DMSO and added to the plate wells before the addition of other reaction components. The final concentration of DMSO in the assay was 2%. The PI3Kδ assay was carried out at room temperature in 20 mM MOPS, pH 6.7, 10 mM MgCl2, 5 mM DTT and CHAPS 0.03%. Reactions were initiated by the addition of ATP, the final reaction mixture consisted of 20 μM PIP2, 2 μM ATP, 0.5 μCi [γ-^33P] ATP, 3.4 nM PI3Kδ. Reactions were incubated for 120 min and terminated by the addition of 40 μL SPA beads suspended in quench buffer: 163 mM potassium phosphate pH 7.8, 20% glycerol, 25 mM EDTA. The final concentration of SPA beads is 1.0 mg/mL. After the plate sealing, plates were shaken overnight at room temperature and centrifuged at 1500 rpm for 10 min, the radioactivity of the product was determined by scintillation counting on Topcount (Perkin-Elmer). IC50 determination was performed by fitting the curve of percent of the solvent control activity versus the log of the inhibitor concentration using the GraphPad Prism 6.0 software.

PI3Kγ (p110γ) Recombinant Human Protein, sequence (P48736 whole entry): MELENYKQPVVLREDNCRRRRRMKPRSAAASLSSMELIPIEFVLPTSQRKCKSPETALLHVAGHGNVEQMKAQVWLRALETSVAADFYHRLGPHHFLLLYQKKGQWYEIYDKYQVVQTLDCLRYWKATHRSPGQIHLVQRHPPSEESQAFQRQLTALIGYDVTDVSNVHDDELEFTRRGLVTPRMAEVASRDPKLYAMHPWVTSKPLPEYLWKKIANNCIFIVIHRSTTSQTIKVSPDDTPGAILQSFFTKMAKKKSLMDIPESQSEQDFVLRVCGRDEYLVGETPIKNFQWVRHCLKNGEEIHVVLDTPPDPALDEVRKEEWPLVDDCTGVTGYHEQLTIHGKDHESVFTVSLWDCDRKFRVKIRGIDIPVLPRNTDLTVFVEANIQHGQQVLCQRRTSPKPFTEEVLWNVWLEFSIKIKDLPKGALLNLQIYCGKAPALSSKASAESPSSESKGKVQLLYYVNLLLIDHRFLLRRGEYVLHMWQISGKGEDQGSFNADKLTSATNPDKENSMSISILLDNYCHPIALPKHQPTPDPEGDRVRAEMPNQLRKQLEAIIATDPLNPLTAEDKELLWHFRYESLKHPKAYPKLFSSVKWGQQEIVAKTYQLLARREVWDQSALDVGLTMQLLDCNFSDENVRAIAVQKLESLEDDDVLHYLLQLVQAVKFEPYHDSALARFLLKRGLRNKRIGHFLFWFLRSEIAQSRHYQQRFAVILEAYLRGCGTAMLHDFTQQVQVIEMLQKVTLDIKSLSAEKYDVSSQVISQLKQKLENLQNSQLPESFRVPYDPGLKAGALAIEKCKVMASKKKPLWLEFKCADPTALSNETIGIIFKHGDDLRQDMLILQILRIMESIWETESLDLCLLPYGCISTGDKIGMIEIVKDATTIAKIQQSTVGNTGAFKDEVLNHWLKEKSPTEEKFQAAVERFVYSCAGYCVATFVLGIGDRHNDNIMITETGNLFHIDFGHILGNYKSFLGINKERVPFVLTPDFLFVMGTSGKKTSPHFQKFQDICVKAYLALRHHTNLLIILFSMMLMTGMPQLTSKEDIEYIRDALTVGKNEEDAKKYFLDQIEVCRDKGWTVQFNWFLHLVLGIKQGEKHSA
PI3Kδ (p110δ/p85α) Recombinant Human Protein, sequence (O00329 whole entry): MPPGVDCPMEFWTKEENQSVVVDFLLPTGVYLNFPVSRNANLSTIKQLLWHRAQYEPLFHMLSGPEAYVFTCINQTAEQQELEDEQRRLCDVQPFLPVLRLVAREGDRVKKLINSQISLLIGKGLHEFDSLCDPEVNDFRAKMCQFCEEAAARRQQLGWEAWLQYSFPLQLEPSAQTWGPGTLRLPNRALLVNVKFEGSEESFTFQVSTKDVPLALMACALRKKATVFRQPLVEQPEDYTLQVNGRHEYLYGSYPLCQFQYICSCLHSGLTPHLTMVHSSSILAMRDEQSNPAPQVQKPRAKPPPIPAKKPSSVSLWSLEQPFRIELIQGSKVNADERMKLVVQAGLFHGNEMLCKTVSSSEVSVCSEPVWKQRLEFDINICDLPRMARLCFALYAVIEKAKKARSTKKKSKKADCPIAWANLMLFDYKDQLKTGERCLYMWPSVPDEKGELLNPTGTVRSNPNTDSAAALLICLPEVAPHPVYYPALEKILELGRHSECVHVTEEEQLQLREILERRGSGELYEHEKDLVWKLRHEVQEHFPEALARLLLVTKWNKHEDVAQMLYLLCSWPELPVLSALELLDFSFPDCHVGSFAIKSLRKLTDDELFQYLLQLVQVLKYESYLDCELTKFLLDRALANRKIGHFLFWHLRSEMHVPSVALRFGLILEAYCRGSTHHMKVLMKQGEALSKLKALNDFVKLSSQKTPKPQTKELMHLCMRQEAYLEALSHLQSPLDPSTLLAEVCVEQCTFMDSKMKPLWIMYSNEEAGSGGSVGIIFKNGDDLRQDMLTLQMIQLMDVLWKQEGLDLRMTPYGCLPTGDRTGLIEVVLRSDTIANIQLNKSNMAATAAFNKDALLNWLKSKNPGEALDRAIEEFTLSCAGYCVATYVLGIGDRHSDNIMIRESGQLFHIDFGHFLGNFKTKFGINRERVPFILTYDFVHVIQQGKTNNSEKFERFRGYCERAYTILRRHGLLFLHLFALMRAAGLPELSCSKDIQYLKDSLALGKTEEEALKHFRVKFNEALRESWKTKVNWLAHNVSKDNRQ
PI3Kδ (p110δ/p85α) Recombinant Human Protein, sequence (P27986 whole entry partner): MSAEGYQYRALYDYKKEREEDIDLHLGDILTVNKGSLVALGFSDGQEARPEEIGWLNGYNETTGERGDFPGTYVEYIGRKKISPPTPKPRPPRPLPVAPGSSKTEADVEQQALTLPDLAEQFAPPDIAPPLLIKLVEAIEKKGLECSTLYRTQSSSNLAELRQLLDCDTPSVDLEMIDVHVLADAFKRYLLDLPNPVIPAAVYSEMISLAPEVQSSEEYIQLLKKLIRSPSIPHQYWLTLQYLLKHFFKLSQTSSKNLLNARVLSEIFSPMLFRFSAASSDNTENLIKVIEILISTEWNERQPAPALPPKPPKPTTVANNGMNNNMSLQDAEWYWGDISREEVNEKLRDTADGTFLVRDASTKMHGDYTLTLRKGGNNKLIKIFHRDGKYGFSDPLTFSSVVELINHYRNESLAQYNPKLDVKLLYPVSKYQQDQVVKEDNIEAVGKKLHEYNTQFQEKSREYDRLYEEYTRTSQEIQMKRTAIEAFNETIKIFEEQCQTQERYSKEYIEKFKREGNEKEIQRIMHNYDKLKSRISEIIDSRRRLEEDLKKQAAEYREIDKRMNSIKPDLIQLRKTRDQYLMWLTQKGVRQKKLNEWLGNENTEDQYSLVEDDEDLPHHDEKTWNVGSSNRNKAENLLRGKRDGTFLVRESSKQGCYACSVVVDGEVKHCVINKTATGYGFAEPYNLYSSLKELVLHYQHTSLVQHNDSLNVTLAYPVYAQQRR

With CCNS(=O)(=O)c1cncc(-c2ccc3nc(-c4nc5ccccc5[nH]4)oc3c2)c1 [Example 59, 5-[2-(1H-Benzimidazol-2-yl)-1,3-benzoxazol-6-yl]-N-ethylpyridine-3-sulfonamide bis(trifluoroacetate)] the IC50 [1] was under 250 nM and the IC50 [2] was at least 5000 nM.

CCS(=O)(=O)Nc1cc(-c2ccc3nc(-c4nc5ccccc5[nH]4)oc3c2)ccc1F [Example 60, N-{5-[2-(1H-Benzimidazol-2-yl)-1,3-benzoxazol-6-yl]-2-fluorophenyl}ethanesulfonamide] gave an IC50 [1] of under 250 nM and an IC50 [2] of at least 5000 nM.

Work on OC(c1cncc(-c2ccc3nc(-c4ncc[nH]4)oc3c2)c1)C(F)(F)F (centres unmarked) [Example 61, 1-(5-(2-(1H-Imidazol-2-yl)benzo[d]oxazol-6-yl)pyridin-3-yl)-2,2,2-trifluoroethanol bis(trifluoroacetate)] yielded an IC50 [1] of under 250 nM and an IC50 [2] of under 250 nM.

Work on Cc1nc(-c2nc3ccc(-c4cncc(S(C)(=O)=O)c4)cc3o2)[nH]c1C [Example 62, 2-(4,5-Dimethyl-1H-imidazol-2-yl)-6-(5-(methylsulfonyl)pyridin-3-yl)benzo[d]oxazole bis(trifluoroacetate)] yielded an IC50 [1] of under 1000 nM and an IC50 [2] of under 5000 nM.

With CCS(=O)(=O)Nc1cncc(-c2ccc3nc(-c4nc(C)c(C)[nH]4)oc3c2)c1 [Example 63, N-(5-(2-(4,5-Dimethyl-1H-imidazol-2-yl)benzo[d]oxazol-6-yl)pyridin-3-yl)ethanesulfonamide bis(trifluoroacetate)] the IC50 [1] was under 250 nM and the IC50 [2] was under 1000 nM.

With CCCc1nc(-c2nc3ccc(-c4cncc(NS(=O)(=O)CC)c4)cc3o2)[nH]c1C [Example 64, N-(5-(2-(5-Methyl-4-propyl-1H-imidazol-2-yl)benzo[d]oxazol-6-yl)pyridin-3-yl)ethanesulfonamide bis(trifluoroacetate)] the IC50 [1] was under 250 nM and the IC50 [2] was under 250 nM.

Compound CCS(=O)(=O)Nc1cc(-c2ccc3nc(-c4nc(C)c(C)[nH]4)oc3c2)cnc1OC [Example 65, N-(5-(2-(4,5-Dimethyl-1H-imidazol-2-yl)benzo[d]oxazol-6-yl)-2-methoxypyridin-3-yl)ethanesulfonamide bis(trifluoroacetate)] has an IC50 [1] of under 250 nM and an IC50 [2] of under 250 nM.

CCS(=O)(=O)Nc1cc(-c2ccc3nc(-c4nc5c([nH]4)CCCC5)oc3c2)cnc1OC [Example 66, N-(2-Methoxy-5-(2-(4,5,6,7-tetrahydro-1H-benzo[d]imidazol-2-yl)benzo[d]oxazol-6-yl)pyridin-3-yl)ethanesulfonamide] gave an IC50 [1] of under 250 nM and an IC50 [2] of under 250 nM.

With Cc1nc(-c2nc3ccc(-c4cncc(C(O)C(F)(F)F)c4)cc3o2)[nH]c1C (centres unmarked) [Example 67, 1-(5-(2-(4,5-Dimethyl-1H-imidazol-2-yl)benzo[d]oxazol-6-yl)pyridin-3-yl)-2,2,2-trifluoroethanol bis(trifluoroacetate)] the IC50 [1] was under 250 nM and the IC50 [2] was under 250 nM.

For OC(c1cncc(-c2ccc3nc(-c4nc5c([nH]4)CCCC5)oc3c2)c1)C(F)(F)F (centres unmarked) [Example 68, 2,2,2-Trifluoro-1-(5-(2-(4,5,6,7-tetrahydro-1H-benzo[d]imidazol-2-yl)benzo[d]oxazol-6-yl)pyridin-3-yl)ethanol], the IC50 [1] was under 250 nM and the IC50 [2] was under 250 nM.

Work on COc1cc(-c2ccc3nc(-c4nc5ccccc5[nH]4)oc3c2)cnc1F [Example 69, 2-(1H-Benzo[d]imidazol-2-yl)-6-(6-fluoro-5-methoxypyridin-3-yl)benzo[d]oxazole bis(trifluoroacetate)] yielded an IC50 [1] of under 250 nM and an IC50 [2] of at least 5000 nM.

With Fc1ncc(-c2ccc3nc(-c4nc5ccccc5[nH]4)oc3c2)cn1 [Example 70, 2-(1H-Benzo[d]imidazol-2-yl)-6-(2-fluoro-pyrimidin-5-yl)benzo[d] oxazole bis(trifluoroacetate)] the IC50 [1] was under 1000 nM and the IC50 [2] was at least 5000 nM.

For O=C(O)Cc1cncc(-c2ccc3nc(-c4nc5ccccc5[nH]4)oc3c2)c1 [Example 71, 2-(5-(2-(1H-Benzo [d]imidazol-2-yl)benzo[d]oxazol-6-yl)pyridin-3-yl)acetic acid], the IC50 [1] was under 1000 nM and the IC50 [2] was under 5000 nM.
